pIC50: −log10 of the molar value. Where two headings read alike, the source gives them in different places.
What was measured:
[1] = tested on: L1210 leukemia cells; test: Culture study with L1210: inhibition of replication/growth of L1210 cells in vitro; format: cell-based; conditions: Mus musculus, read-out: ED50 (drug concentration needed to inhibit cell growth by 50%)
Description: The effect of the compounds on the growth of L1210 cells in vitro was used as a measure of cytotoxicity. Suspension cultures were grown in Fischer's media supplemented with 10% horse serum at 37°. 72 Hours after addition of the nitrosoureas, cell numbers were determined in two independent samples, in duplicate, using a Coulter counter, for each concentration tested. ED50 values were estimated from dose-response curves compiled from at least three separate experiments and represent the drug concentration needed to inhibit cell growth by 50%.

[2] = tested on: L1210 cells; test: In vivo study with CDF1 mice inoculated with L1210 cells
Description: Two groups of CDF1 mice were inoculated with 1 × 10^5 L1210 cells/animal intraperitoneally. Two days later, one group of six mice received a single intraperitoneal injection (150 mg/Kg) of compound 5 (5'-[3-(2-chloroethyl)-3-nitrosoureido]-5'-deoxythymidine) and the control group was administered an equal volume of vehicle.

[3] = tested on: L1210 cells; test: Reversal of cytotoxicity of nitrosourea analogs of thymidine by pyrimidine deoxyribonucleosides (inhibition study in L1210 cultures); format: cell-based; conditions: for Percent Reversal: nitrosourea analog 5 μM
[4] = single intraperitoneal injection 150 mg/kg, 2 days after 1 × 10^5 L1210 cells, CDF1 mice
[5] = reversing agent deoxycytidine 0 μM
[6] = reversing agent deoxycytidine 5 μM
[7] = reversing agent deoxycytidine 25 μM
[8] = reversing agent deoxyuridine 0 μM
[9] = reversing agent deoxyuridine 5 μM
[10] = reversing agent deoxyuridine 25 μM
[11] = reversing agent thymidine 25 μM

Compound | pIC50 ([1]; L1210, 72 h) | Percent Reversal [3, 5] | Percent Reversal [3, 6] | Percent Reversal [3, 7] | Percent Reversal [3, 8] | Percent Reversal [3, 9] | Percent Reversal [3, 10] | Percent Reversal ([3]; reversing agent thymidine 0 μM) | Percent Reversal ([3]; reversing agent thymidine 1 μM) | Percent Reversal ([3]; reversing agent thymidine 5 μM) | Percent Reversal [3, 11] | also measured
O=NN(CCCl)C(=O)NCCCl [BCNU, 1,3-bis(2-Chloroethyl)-1-nitrosourea, reference compound] | 5.40 | – | – | – | – | – | – | – | – | – | – | –
Cc1cn([C@H]2C[C@H](O)[C@@H](CNC(=O)N(CCCl)N=O)O2)c(=O)[nH]c1=O [Compound 5, 5'-[3-(2-chloroethyl)-3-nitrosoureido]-5'-deoxythymidine] | – | – | – | – | – | – | – | – | – | – | – | animals survived more than 60 days ([2]; single intraperitoneal injection 150 mg/Kg, 2 days after 1 × 10^5 L1210 cells, CDF1 mice): 2/6; tumor cell kill ([2]; single intraperitoneal injection 150 mg/Kg, L1210, CDF1 mice): ~5 log; increase in life span of the dying animals over the controls [2, 4]: 211%; long term survivors (>60 days) [2, 4]: 33%
Cc1cn([C@H]2C[C@H](NC(=O)N(CCCl)N=O)[C@@H](CO)O2)c(=O)[nH]c1=O [Compound 10, 3'-[3-(2-chloroethyl)-3-nitrosoureido]-3'-deoxythymidine] | 5.82 | 0% | 28% | 40% | 0% | 32% | 51% | 0% | 22% | 45% | 54% | Percent Reversal ([3]; reversing agent deoxycytidine 1 μM): 5%; Percent Reversal ([3]; reversing agent deoxyuridine 1 μM): 4%
Cc1cn([C@H]2C[C@H](NC(=O)N(C)N=O)[C@@H](CO)O2)c(=O)[nH]c1=O [Compound 11, 3'-(3-methyl-3-nitrosoureido)-3'-deoxythymidine] | – | 0% | 42% | 74% | 0% | 49% | 81% | 0% | 21% | 54% | 62% | inhibition at 5 µM ([3]; Mus musculus, compound 11 5 μM, no deoxycytidine, L1210, 72 hours, read-out: Percent Inhibition): 100%; Percent Inhibition ([3]; compound 11 5 μM + deoxycytidine 5 μM, L1210, 72 hours): 58%; Percent Inhibition ([3]; compound 11 5 μM + deoxycytidine 25 μM, L1210, 72 hours): 26%; Percent Inhibition ([3]; compound 11 5 μM + deoxycytidine 125 μM, L1210, 72 hours): 0%; Percent Reversal ([3]; reversing agent deoxycytidine 125 μM): 100%; pIC50 ([1]; L1210 cells in culture, 72 hours, Coulter counter, Fischer's media with 10% horse serum, 37°): 6.00
